Among the test systems are SW-620 colon; SR leukemia; HOP-62 NSCLC; OVCAR-5 ovarian; SK-MEL-28 melanoma; MDA-MB-231 breast; U251 CNS; A549 NSCLC; EKVX NSCLC; SNB-75 CNS.
What all share (assay): NCI-60 cell line screen, 48 h

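Results reflect a 48-hour exposure of cells in 96-well plates to compound at five concentrations. Abbreviation: GI50, concentration required for 50% inhibition of growth. TGI marks complete inhibition of growth.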 Bounds are passed on as bounds.

As for `O=C1C(Br)=CC2(C=C1Br)CCN=c1c2c(O)c2nc3ccccc3c3ccnc1c23`, the GI50 with SW-620 colon is 0.712 µM; with SR leukemia, 0.195 µM; with HOP-62 NSCLC it was 7.99 µM; with OVCAR-5 ovarian, 7.22 µM; with SK-MEL-28 melanoma, 0.803 µM; with MDA-MB-231 breast, 3.59 µM. For the same molecule, the GI50 was 1.67 µM with U251 CNS, 6.69 µM in the assay with A549 NSCLC and 7.23 µM with EKVX NSCLC. Besides, the TGI was 1.72 µM with SW-620 colon; 5.83 µM in the assay with SR leukemia; 15.6 µM in the assay with HOP-62 NSCLC; 17.6 µM with OVCAR-5 ovarian; 2.49 µM in the assay with SK-MEL-28 melanoma; 12.1 µM with MDA-MB-231 breast. The TGI in the assay with U251 CNS was 7.04 µM; in the assay on A549 NSCLC, 28.4 µM; with EKVX NSCLC, 15.1 µM.
With `CCC[CH2][Sn]([CH2]CCC)([O]C(=O)c1cc(F)cc(F)c1)[O]C(=O)c1cc(F)cc(F)c1`, the GI50 in the assay with SW-620 colon was 0.564 µM; with SR leukemia, 0.459 µM; in the assay on HOP-62 NSCLC it was 2.39 µM; with OVCAR-5 ovarian, 1.6 µM; with SNB-75 CNS it was 0.82 µM; with SK-MEL-28 melanoma, 1.13 µM. Further, the values for the GI50 in the assay with U251 CNS, with A549 NSCLC and with EKVX NSCLC were 0.615 µM, 7.13 µM and 1.29 µM, respectively. Further, the TGI in the assay with SW-620 colon stood at 1.81 µM; in the assay with SR leukemia, 3.29 µM; with HOP-62 NSCLC, 4.19 µM; in the assay on OVCAR-5 ovarian it was 2.96 µM; in the assay with SNB-75 CNS, 2.09 µM; in the assay on SK-MEL-28 melanoma, 2.37 µM. Further, the values for the TGI with U251 CNS, in the assay on A549 NSCLC and with EKVX NSCLC were 1.85 µM, 20.4 µM and 2.55 µM, respectively.
For `COC1=CC(O)(CC(N)=O)c2ccccc2C1=O` (configuration not stated), the TGI in the assay on SW-620 colon, with SR leukemia, in the assay with HOP-62 NSCLC, in the assay with OVCAR-5 ovarian, with SNB-75 CNS and in the assay with SK-MEL-28 melanoma was over 100 µM each time. The TGI in the assay on U251 CNS, with A549 NSCLC and in the assay with EKVX NSCLC was over 100 µM each time.
`Cc1ccc(-c2nc(SCC(=O)O)n[nH]2)cc1`: the TGI in the assay on SW-620 colon, in the assay on SR leukemia, in the assay with HOP-62 NSCLC, in the assay with OVCAR-5 ovarian, in the assay with SNB-75 CNS and in the assay on SK-MEL-28 melanoma was over 100 µM throughout. Further, the TGI with U251 CNS, with A549 NSCLC and in the assay on EKVX NSCLC was over 100 µM in each case.
Turning to `CC(=O)C1CC=C(C)CC1` (configuration not stated), the TGI in the assay on SW-620 colon, with SR leukemia, in the assay on HOP-62 NSCLC, with OVCAR-5 ovarian, in the assay with SNB-75 CNS and in the assay on SK-MEL-28 melanoma was over 100 µM throughout. In addition, the TGI in the assay with U251 CNS, with A549 NSCLC and in the assay with EKVX NSCLC was over 100 µM throughout.
Turning to `COc1ccc(C2=NNC(=O)OC2c2ccccc2)cc1` (configuration not stated), the TGI with SW-620 colon, in the assay with SR leukemia, in the assay with HOP-62 NSCLC, with OVCAR-5 ovarian, with SNB-75 CNS and in the assay with SK-MEL-28 melanoma was over 100 µM each time. Besides, the TGI in the assay with U251 CNS, in the assay on A549 NSCLC and in the assay on EKVX NSCLC was over 100 µM in each case.
As for `Brc1ccc(-c2nnc(-c3nn(-c4ccccc4)c4nc5ccccc5nc34)o2)cc1`, the TGI with SW-620 colon, in the assay with SR leukemia, with HOP-62 NSCLC, with OVCAR-5 ovarian, with SNB-75 CNS and in the assay on SK-MEL-28 melanoma was over 100 µM each time. For the same molecule, the TGI in the assay on U251 CNS, in the assay on A549 NSCLC and in the assay with EKVX NSCLC was over 100 µM in each case.
With `CCOC(=O)c1sc2nc3sc(N=Nc4ccc(Cl)cc4)c(O)n3c(=S)c2c1C`, the GI50 in the assay on SW-620 colon was 35.4 µM; with SR leukemia, over 100 µM; in the assay with HOP-62 NSCLC, 30.3 µM; in the assay on OVCAR-5 ovarian it was 36.9 µM; with SNB-75 CNS, 15.5 µM; with SK-MEL-28 melanoma, 28.4 µM. For the same molecule, the GI50 was 29.1 µM in the assay on U251 CNS, 35 µM with A549 NSCLC and 5.43 µM with EKVX NSCLC. In addition, the TGI in the assay with SW-620 colon, in the assay on SR leukemia, in the assay with HOP-62 NSCLC, with OVCAR-5 ovarian, in the assay on SNB-75 CNS and in the assay with SK-MEL-28 melanoma was over 100 µM in each case. Further, the TGI is over 100 µM in the assay on U251 CNS, over 100 µM in the assay with A549 NSCLC and 39.6 µM in the assay with EKVX NSCLC.
As to `CCCCCCCC/C=C/CCCCCCCCC1=NCCN1CCO`, the GI50 was 1.71 µM in the assay on SW-620 colon; 1.9 µM with SR leukemia; 5.29 µM in the assay on HOP-62 NSCLC; 10.8 µM with OVCAR-5 ovarian; 2.8 µM in the assay with SNB-75 CNS; 10.5 µM in the assay on SK-MEL-28 melanoma. Besides, the figures for the GI50 with MDA-MB-231 breast, with U251 CNS and in the assay with A549 NSCLC were 1.99 µM, 1.78 µM and 2.67 µM, respectively. Further, the TGI worked out at 3.24 µM in the assay with SW-620 colon; 4.95 µM in the assay with SR leukemia; 29.4 µM in the assay with HOP-62 NSCLC; 24 µM in the assay on OVCAR-5 ovarian; 15.3 µM with SNB-75 CNS; 24.4 µM in the assay on SK-MEL-28 melanoma. The TGI in the assay with MDA-MB-231 breast came out at 4.19 µM; with U251 CNS, 3.67 µM; with A549 NSCLC, 7.41 µM.
Regarding `COC(=O)c1ccc2c(c1)nc(-c1cc3ccccc3[nH]c1=O)n2-c1cc(C(C)(C)C)[nH]n1`, the GI50 with SR leukemia was 12.8 µM; in the assay on HOP-62 NSCLC, 0.996 µM; in the assay on SNB-75 CNS, 5.42 µM; with MDA-MB-231 breast, 4.13 µM; in the assay on U251 CNS, 0.987 µM; with A549 NSCLC, over 100 µM. The GI50 in the assay with EKVX NSCLC was 10 µM. The TGI with SR leukemia is over 100 µM; in the assay on HOP-62 NSCLC it was over 100 µM; in the assay with SNB-75 CNS, 41.5 µM; in the assay with MDA-MB-231 breast, over 100 µM; in the assay with U251 CNS, over 100 µM; in the assay on A549 NSCLC, over 100 µM. The molecule also gave a TGI in the assay on EKVX NSCLC of over 100 µM.
As to `CN(C)c1ccc(N=Cc2c([O-])ccc3ccccc23)cc1.[C-]#[O+].[C-]#[O+].[Ir]`, the GI50 in the assay on SW-620 colon is 16.7 µM; in the assay with SR leukemia it was 15.4 µM; with HOP-62 NSCLC, 44.1 µM; with OVCAR-5 ovarian, 29.1 µM; with SNB-75 CNS it was 19.3 µM; with U251 CNS, 15.7 µM. The values for the GI50 with A549 NSCLC and with EKVX NSCLC were 31.8 µM and 24.9 µM, respectively. Moreover, the TGI is 32.5 µM in the assay on SW-620 colon; 44.1 µM with SR leukemia; over 100 µM in the assay with HOP-62 NSCLC; 64.3 µM with OVCAR-5 ovarian; 50.4 µM with SNB-75 CNS; 30.4 µM in the assay with U251 CNS. Besides, the figures for the TGI in the assay with A549 NSCLC and in the assay with EKVX NSCLC were 89.3 µM and 64.6 µM, respectively.

These data come from PubChem BioAssay (NCI).
